Entries after “also recorded” stand apart in the source; their conditions may differ. Structures can show the parent of a compound that is named as a salt.
Legend:
P. falciparum 3D7 = experiment: P. falciparum asexual blood stage viability assay; assay type: cell-based; details: for Pf3D7 blood stage activity at single concentration: Inactive = no inhibition when tested in triplicate at a single concentration of 1 μM; for fold improvement in P. falciparum blood stage potency on adding CF3 or OCF3: compared to parent compound without meta group (64, 66, 67 or 68)
PfPK6 = PfPK6 (Plasmodium falciparum, UniProt Q8IDW1); experiment: KinaseSeeker split-luciferase assay on PfPK6; assay type: binding, P. falciparum; details: for activity against PfPK6 in words: KinaseSeeker, 1 μM; for remaining activity at 1 µM: read-out: PfPK6 activity remaining at 1 μM (%); for fold drop in potency against PfPK6 relative to Ki8751 / fold increase in potency against PfPK6 compared to Ki8751: compared to Ki8751

For `COc1cc2nccc(Oc3ccc(NC(=O)Nc4ccc(C(=O)N5CCN(C)CC5)c(C(F)(F)F)c4)c(F)c3)c2cc1OC` [Compound 47, 1-(4-((6,7-dimethoxyquinolin-4-yl)oxy)-2-fluorophenyl)-3-(4-(4-methylpiperazine-1-carbonyl)-3-(trifluoromethyl)phenyl)urea], the “Pf3D7 blood stage activity at single concentration” value (P. falciparum 3D7) was “Inactive^e”.
For `COc1cc2nccc(Oc3ccc(NC(=O)Nc4cccc(C#N)c4)c(F)c3)c2cc1OC` [Compound 58, 1-(3-cyanophenyl)-3-(4-((6,7-dimethoxyquinolin-4-yl)oxy)-2-fluorophenyl)urea], the “Pf3D7 blood stage activity at single concentration” value (P. falciparum 3D7) was “Inactive^d”.
For `COc1cc2nccc(Oc3ccc(NC(=O)Nc4cccc(C(F)(F)F)c4)c(F)c3)c2cc1OC` [Compound 39, 1-(4-((6,7-dimethoxyquinolin-4-yl)oxy)-2-fluorophenyl)-3-(3-(trifluoromethyl)phenyl)urea], the IC50 (PfPK6) was under 5 nM.
In the case of `COc1cc2nccc(Oc3ccc(NC(=O)Nc4cc(C(F)(F)F)ccc4F)c(F)c3)c2cc1OC` [Compound 40, 1-(4-((6,7-dimethoxyquinolin-4-yl)oxy)-2-fluorophenyl)-3-(2-fluoro-5-(trifluoromethyl)phenyl)urea], the “Pf3D7 blood stage activity in dose-response” value (P. falciparum 3D7; Inactive = no inhibition when tested up to 5 μM in two experiments, dose-response) is reported as “Inactive^d” and the IC50 (PfPK6) is reported as under 5 nM.
For `COc1cc2nccc(Oc3ccc(NC(=O)Nc4cccc(OC(F)F)c4)c(F)c3)c2cc1OC` [Compound 56, 1-(3-(difluoromethoxy)phenyl)-3-(4-((6,7-dimethoxyquinolin-4-yl)oxy)-2-fluorophenyl)urea], the “Pf3D7 blood stage activity at single concentration” value (P. falciparum 3D7) was “Inactive^d”.
For `O=C(Nc1ccc(F)cc1F)Nc1ccc(Oc2cnnc3ccccc23)cc1F` [Compound 24, 1-(4-(cinnolin-4-yloxy)-2-fluorophenyl)-3-(2,4-difluorophenyl)urea], the “activity against PfPK6 in words” value (PfPK6) was “complete loss of potency” and the remaining activity at 1 µM (PfPK6) was 100%.
`COc1cc2nccc(Oc3ccc(NC(=O)Nc4ccc(C=C5CCNCC5)c(OC(F)(F)F)c4)c(F)c3)c2cc1OC` [Compound 82, 1-(4-((6,7-dimethoxyquinolin-4-yl)oxy)-2-fluorophenyl)-3-(4-(piperidin-4-ylidenemethyl)-3-(trifluoromethoxy)phenyl)urea] was tested, and the “fold improvement in P. falciparum blood stage potency on adding CF3 or OCF3” value (P. falciparum 3D7) was 2 fold.
`COc1cc2nccc(Oc3ccc(NC(=O)Nc4cccc(CN5CCN(C)CC5)c4)c(F)c3)c2cc1OC` [Compound 42, 1-(4-((6,7-dimethoxyquinolin-4-yl)oxy)-2-fluorophenyl)-3-(3-((4-methylpiperazin-1-yl)methyl)phenyl)urea diformate] was tested, and the “Pf3D7 blood stage activity at single concentration” value (P. falciparum 3D7) was “loss of P. falciparum blood stage activity; also recorded: Inactive^e”.
With `COc1cc2nccc(Oc3ccc(NC(=O)Nc4ccc(C=C5CCNCC5)c(C(F)(F)F)c4)c(F)c3)c2cc1OC` [Compound 81, 1-(4-((6,7-dimethoxyquinolin-4-yl)oxy)-2-fluorophenyl)-3-(4-(piperidin-4-ylidenemethyl)-3-(trifluoromethyl)phenyl)urea] the “fold improvement in P. falciparum blood stage potency on adding CF3 or OCF3” value (P. falciparum 3D7) was 2 fold.
In the case of `COc1cc2nccc(Oc3ccc(NC(=O)Nc4cccc(Br)c4)c(F)c3)c2cc1OC` [Compound 50, 1-(3-bromophenyl)-3-(4-((6,7-dimethoxyquinolin-4-yl)oxy)-2-fluorophenyl)urea], the “Pf3D7 blood stage activity at single concentration” value (P. falciparum 3D7) is reported as “Inactive^d”.
In the case of `COc1cc2nccc(Oc3ccc(NC(=O)Nc4ccc(N(C)C5CCN(C)CC5)c(C(F)(F)F)c4)c(F)c3)c2cc1OC` [Compound 77, 1-(4-((6,7-dimethoxyquinolin-4-yl)oxy)-2-fluorophenyl)-3-(4-(methyl(1-methylpiperidin-4-yl)amino)-3-(trifluoromethyl)phenyl)urea], the “fold improvement in P. falciparum blood stage potency on adding CF3 or OCF3” value (P. falciparum 3D7) is reported as 2 fold.
`COc1cccc(NC(=O)Nc2ccc(Oc3ccnc4cc(OC)c(OC)cc34)cc2F)c1` [Compound 54, 1-(4-((6,7-dimethoxyquinolin-4-yl)oxy)-2-fluorophenyl)-3-(3-methoxyphenyl)urea] was tested, and the “Pf3D7 blood stage activity at single concentration” value (P. falciparum 3D7) was “Inactive^d”.
For `COc1cc2nccc(Oc3ccc(NC(=O)Nc4cccc(C(=O)N5CCN(C)CC5)c4)c(F)c3)c2cc1OC` [Compound 44, 1-(4-((6,7-dimethoxyquinolin-4-yl)oxy)-2-fluorophenyl)-3-(3-(4-methylpiperazine-1-carbonyl)phenyl)urea], the “Pf3D7 blood stage activity at single concentration” value (P. falciparum 3D7) was “did not observe antiplasmodial activity; also recorded: Inactive^e”.
With `COc1cc2nccc(Oc3ccc(NC(=O)Nc4ccc(CC5CCNCC5)c(OC(F)(F)F)c4)c(F)c3)c2cc1OC` [Compound 80, 1-(4-((6,7-dimethoxyquinolin-4-yl)oxy)-2-fluorophenyl)-3-(4-(piperidin-4-ylmethyl)-3-(trifluoromethoxy)phenyl)urea] the “fold improvement in P. falciparum blood stage potency on adding CF3 or OCF3” value (P. falciparum 3D7) was 2 fold.
`COc1cc2nccc(Oc3ccc(NC(=O)Nc4ccc(OC5CCN(C)CC5)c(OC(F)(F)F)c4)c(F)c3)c2cc1OC` [Compound 76, 1-(4-((6,7-dimethoxyquinolin-4-yl)oxy)-2-fluorophenyl)-3-(4-((1-methylpiperidin-4-yl)oxy)-3-(trifluoromethoxy)phenyl)urea] was tested, and the “fold improvement in P. falciparum blood stage potency on adding CF3 or OCF3” value (P. falciparum 3D7) was 4 fold.
In the case of `COc1ccc(NC(=O)Nc2ccc(F)cc2F)c(F)c1` [Compound 6, 1-(2,4-difluorophenyl)-3-(2-fluoro-4-methoxyphenyl)urea], the “activity against PfPK6 in words” value (PfPK6) is reported as “completely inactive” and the remaining activity at 1 µM (PfPK6) is reported as 100%.
In the case of `O=C(Nc1ccc(F)cc1F)Nc1ccc(Oc2ccnc3ccccc23)cc1F` [Compound 3, 1-(2,4-difluorophenyl)-3-(2-fluoro-4-(quinolin-4-yloxy)phenyl)urea], the “fold drop in potency against PfPK6 relative to Ki8751” value (PfPK6) is reported as 34 fold.
With `COc1cc2nccc(Oc3ccc(NC(=O)Nc4cc(C(=O)N5CCN(C)CC5)cc(C(F)(F)F)c4)c(F)c3)c2cc1OC` [Compound 48, 1-(4-((6,7-dimethoxyquinolin-4-yl)oxy)-2-fluorophenyl)-3-(3-(4-methylpiperazine-1-carbonyl)-5-(trifluoromethyl)phenyl)urea formate] the “Pf3D7 blood stage activity at single concentration” value (P. falciparum 3D7) was “Inactive^e”.
`COc1cc2nccc(Oc3ccc(N)cc3)c2cc1OC` [Compound 15, 4-((6,7-dimethoxyquinolin-4-yl)oxy)aniline] was tested, and the “activity against PfPK6 in words” value (PfPK6) was “complete loss of activity”.
With `COc1cc2nccc(Oc3ccc(NC(=O)Nc4ccccc4F)c(F)c3)c2cc1OC` [Compound 7, 1-(4-((6,7-dimethoxyquinolin-4-yl)oxy)-2-fluorophenyl)-3-(2-fluorophenyl)urea] the “fold increase in potency against PfPK6 compared to Ki8751” value (shortened to “fold increase in potency against PfPK6”) (PfPK6) was at least 3 fold.
In the case of `O=C(Nc1ccc(O)cc1F)Nc1ccc(F)cc1F` [Compound 5, 1-(2,4-difluorophenyl)-3-(2-fluoro-4-hydroxyphenyl)urea], the “activity against PfPK6 in words” value (PfPK6) is reported as “completely inactive” and the remaining activity at 1 µM (PfPK6) is reported as 100%.
In the case of `COc1cc2nccc(Oc3ccc(NC(=O)Nc4ccc(N5CCN(C)CC5)cc4)c(F)c3)c2cc1OC` [Compound 59, 1-(4-((6,7-dimethoxyquinolin-4-yl)oxy)-2-fluorophenyl)-3-(4-(4-methylpiperazin-1-yl)phenyl)urea], the “fold drop in activity against PfPK6 compared to 41” value (PfPK6) is reported as 30 fold.
With `COc1cc2nccc(Oc3ccc(NC(=O)Nc4ccc(F)cc4)c(F)c3)c2cc1OC` [Compound 8, 1-(4-((6,7-dimethoxyquinolin-4-yl)oxy)-2-fluorophenyl)-3-(4-fluorophenyl)urea] the “fold increase in potency against PfPK6” value (PfPK6) was at least 3 fold.
With `COc1cc2nccc(Oc3ccc(NC(=O)Nc4cccc(OC(C)C)c4)c(F)c3)c2cc1OC` [Compound 55, 1-(4-((6,7-dimethoxyquinolin-4-yl)oxy)-2-fluorophenyl)-3-(3-isopropoxyphenyl)urea] the “Pf3D7 blood stage activity at single concentration” value (P. falciparum 3D7) was “Inactive^d”.
`COc1cc2nccc(Oc3ccc(NC(=O)Nc4cccc(C(C)C)c4)c(F)c3)c2cc1OC` [Compound 52, 1-(4-((6,7-dimethoxyquinolin-4-yl)oxy)-2-fluorophenyl)-3-(3-isopropylphenyl)urea] was tested, and the “Pf3D7 blood stage activity at single concentration” value (P. falciparum 3D7) was “Inactive^d”.
With `COc1cc2nccc(Oc3ccc(N)c(F)c3)c2cc1OC` [Compound 14, 4-((6,7-dimethoxyquinolin-4-yl)oxy)-2-fluoroaniline] the “activity against PfPK6 in words” value (PfPK6) was “complete loss of activity” and the remaining activity at 1 µM (PfPK6) was 100%.
For `COc1cc2nccc(Oc3ccc(NC(=O)Nc4ccc(C(=O)N5CCN(C)CC5)cc4)c(F)c3)c2cc1OC` [Compound 43, 1-(4-((6,7-dimethoxyquinolin-4-yl)oxy)-2-fluorophenyl)-3-(4-(4-methylpiperazine-1-carbonyl)phenyl)urea], the “Pf3D7 blood stage activity at single concentration” value (P. falciparum 3D7) was “did not observe antiplasmodial activity; also recorded: Inactive^e”.
In the case of `COc1ccc2nccc(Oc3ccc(NC(=O)Nc4ccc(F)cc4F)c(F)c3)c2c1` [Compound 2, 1-(2,4-difluorophenyl)-3-(2-fluoro-4-((6-methoxyquinolin-4-yl)oxy)phenyl)urea], the “fold drop in potency against PfPK6 relative to Ki8751” value (PfPK6) is reported as 15 fold.
With `COc1ccc2c(Oc3ccc(NC(=O)Nc4ccc(F)cc4F)c(F)c3)ccnc2c1` [Compound 1, 1-(2,4-difluorophenyl)-3-(2-fluoro-4-((7-methoxyquinolin-4-yl)oxy)phenyl)urea] the “fold drop in potency against PfPK6 relative to Ki8751” value (PfPK6) was 3 fold.
`O=C(Nc1ccc(F)cc1F)Nc1ccc(Oc2ccnc3[nH]ccc23)cc1F` [Compound 29, 1-(4-((1H-pyrrolo[2,3-b]pyridin-4-yl)oxy)-2-fluorophenyl)-3-(2,4-difluorophenyl)urea] was tested, and the “fold improvement in PfPK6 potency on replacing the quinoline” value (PfPK6; compared to quinoline 3) was 4 fold.
For `COc1cc2nccc(Oc3ccc(NC(=O)Nc4ccccc4)c(F)c3)c2cc1OC` [Compound 9, 1-(4-((6,7-dimethoxyquinolin-4-yl)oxy)-2-fluorophenyl)-3-phenylurea], the “fold increase in potency against PfPK6” value (PfPK6) was at least 3 fold.
For `COc1cc2nccc(Oc3ccc(NC(=O)Nc4ccc(CN5CCOCC5)cc4)c(F)c3)c2cc1OC` [Compound 60, 1-(4-((6,7-dimethoxyquinolin-4-yl)oxy)-2-fluorophenyl)-3-(4-(morpholinomethyl)phenyl)urea], the “Pf3D7 blood stage activity at single concentration” value (P. falciparum 3D7) was “Inactive^c”.
`COc1cc2nccc(Oc3ccc(NC(=O)Nc4ccc(NC5CCN(C)CC5)cc4)c(F)c3)c2cc1OC` [Compound 65, 1-(4-((6,7-dimethoxyquinolin-4-yl)oxy)-2-fluorophenyl)-3-(4-((1-methylpiperidin-4-yl)amino)phenyl)urea] was tested, and the “fold drop in activity against PfPK6 compared to 41” value (PfPK6) was 12 fold.

From paper PMC10052868 (European journal of medicinal chemistry, 2022)
